Among the data in patent US11117885B2, “Compounds having estrogen receptor alpha degradation activity and uses thereof” (ACCUTAR BIOTECHNOLOGY INC., priority 2018, dated 2021) are DC50 values, retold here.

Where only a bound is given, the exact number is not on record here.

The target of this test is T1, ERα (Homo sapiens, UniProt P03372).
T1 sequence (P03372 1-595): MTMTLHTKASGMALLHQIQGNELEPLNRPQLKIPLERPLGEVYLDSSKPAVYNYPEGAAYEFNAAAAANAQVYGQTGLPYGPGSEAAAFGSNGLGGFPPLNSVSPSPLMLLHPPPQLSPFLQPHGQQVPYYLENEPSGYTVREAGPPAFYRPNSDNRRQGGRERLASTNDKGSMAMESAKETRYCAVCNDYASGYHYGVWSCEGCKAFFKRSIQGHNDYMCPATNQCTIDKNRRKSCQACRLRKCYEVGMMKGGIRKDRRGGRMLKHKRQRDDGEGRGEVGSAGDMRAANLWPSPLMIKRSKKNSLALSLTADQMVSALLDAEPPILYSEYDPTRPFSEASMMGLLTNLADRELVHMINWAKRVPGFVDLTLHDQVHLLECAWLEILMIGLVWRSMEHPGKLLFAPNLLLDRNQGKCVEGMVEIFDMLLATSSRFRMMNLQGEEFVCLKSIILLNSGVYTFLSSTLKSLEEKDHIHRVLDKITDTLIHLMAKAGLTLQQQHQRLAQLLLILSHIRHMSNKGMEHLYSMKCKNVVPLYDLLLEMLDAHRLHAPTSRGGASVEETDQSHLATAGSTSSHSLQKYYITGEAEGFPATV
The test is described as follows: ERα degradative activity in T47D cells (western blot, densitometry). Particulars: T47D cell line; concentration at which 50% of the target protein (ERα) is degraded. The class given is cell-based. Also noted: endogenous in cells; host or cells: T47D. The protocol: T47D cells were plated in 24-well plates at 1.5×10^5 cells/well in the RPMI growth medium containing 10% FBS and 1× Penicillin Streptomycin, and then incubated at 37° C. overnight. The following day, the test compound was administered to the cells by using 1000× compound stock solution prepared in DMSO at various concentrations. After administration of the compound, the cells were then incubated at 37 C for various period of treatment time, e.g., as indicated in the figures.
Upon completion, the cells were washed with PBS and protein was collected in Laemmli sample buffer (1×; VWR International). Protein was isolated from cell lysate (approximately 25 μg) by SDS-PAGE and transferred to nitrocellulose membranes. Non-specific binding was blocked by incubation with blocking buffer (5% milk in Tris-buffered saline with 0.1% Tween 20 (“TBS-T”)) at rt for 60 minutes.
The membrane was then incubated with primary antibodies (mouse anti-ERα (1:500, Santa Cruz), mouse anti-GAPDH (1:5,000, Santa Cruz), or mouse anti-actin (1:4,000, Santa Cruz)) overnight at 4° C., followed by washing (3 times) with TBS-T, and then incubation with horseradish peroxidase-conjugated rabbit anti-mouse IgG (1:5,000) for 60 minutes. After the TBS-T washes, blots were developed with an enhanced chemiluminescence kit (ThermoFisher Scientific) and the bands were imaged and quantified by densitometry (Bio-Rad).
The DC50 values (i.e., the concentration of test compound at which 50% of the target protein is degraded) was calculated for various compounds of the present disclosure and are shown in the Table 3, below. A corresponds to a DC50 value less than or equal to 1.5 μM; B corresponds to a DC50 value greater than 1.5 μM and less than 3 μM; and C corresponds to a DC50 value greater than 3 μM.
Take `CC/C(=C(\c1ccccc1)c1ccc(OCCN(C)C(=O)CCCCCCCNc2cccc3c2C(=O)N(C2CCC(=O)NC2=O)C3=O)cc1)c1ccccc1` (stereo not shown) [Compound 143, (Z)-8-((2-(2,6-dioxopiperidin-3-yl)-1,3-dioxoisoindolin-4-yl)amino)-N-(2-(4-(1,2-diphenylbut-1-en-1-yl)phenoxy)ethyl)-N-methyloctanamide]: the DC50 was 1500 to 3000 nM.

Compound `CC/C(=C(\c1ccccc1)c1ccc(OCCN(C)C(=O)CCOCCOCCNc2cccc3c2C(=O)N(C2CCC(=O)NC2=O)C3=O)cc1)c1ccccc1` (stereo not shown) [Compound 15, (Z)-3-(2-(2-((2-(2,6-Dioxopiperidin-3-yl)-1,3-dioxoisoindolin-4-yl)amino)ethoxy)ethoxy)-N-(2-(4-(1,2-diphenylbut-1-en-1-yl)phenoxy)ethyl)-N-methylpropanamide] displayed a half-maximal degradation concentration (DC50) of over 3000 nM.

In the case of `CC/C(=C(\c1ccccc1)c1ccc(OCCN(C)C(=O)CCCCCNc2cccc3c2C(=O)N(C2CCC(=O)NC2=O)C3=O)cc1)c1ccccc1` (stereo not shown) [Compound 120, (Z)-6-((2-(2,6-dioxopiperidin-3-yl)-1,3-dioxoisoindolin-4-yl)amino)-N-(2-(4-(1,2-diphenylbut-1-en-1-yl)phenoxy)ethyl)-N-methylhexanamide], the DC50 was at most 1500 nM.

`CC/C(=C(\c1ccccc1)c1ccc(OCCN(C)C(=O)CCOCCNc2cccc3c2C(=O)N(C2CCC(=O)NC2=O)C3=O)cc1)c1ccccc1` (stereo not shown) [Compound 8, (Z)-3-(2-((2-(2,6-dioxopiperidin-3-yl)-1,3-dioxoisoindolin-4-yl)amino)ethoxy)-N-(2-(4-(1,2-diphenylbut-1-en-1-yl)phenoxy)ethyl)-N-methylpropanamide]: the DC50 was over 3000 nM.

Turning to `CC/C(=C(\c1ccccc1)c1ccc(OCCN(C)C(=O)CCNc2cccc3c2C(=O)N(C2CCC(=O)NC2=O)C3=O)cc1)c1ccccc1` (stereo not shown) [Compound 89, (Z)-3-((2-(2,6-dioxopiperidin-3-yl)-1,3-dioxoisoindolin-4-yl)amino)-N-(2-(4-(1,2-diphenylbut-1-en-1-yl)phenoxy)ethyl)-N-methylpropanamide], the DC50 is at most 1500 nM.

In the case of `CC/C(=C(\c1ccccc1)c1ccc(OCCN(C)C(=O)CNc2cccc3c2C(=O)N(C2CCC(=O)NC2=O)C3=O)cc1)c1ccccc1` (stereo not shown) [Compound 88, (Z)-2-((2-(2,6-dioxopiperidin-3-yl)-1,3-dioxoisoindolin-4-yl)amino)-N-(2-(4-(1,2-diphenylbut-1-en-1-yl)phenoxy)ethyl)-N-methylacetamide], the DC50 is over 3000 nM.

The compound `CC/C(=C(\c1ccccc1)c1ccc(OCCN(C)C(=O)CCOCCOCCOCCOCCNc2cccc3c2C(=O)N(C2CCC(=O)NC2=O)C3=O)cc1)c1ccccc1` (stereo not shown) [Compound 54, (Z)-1-((2-(2,6-dioxopiperidin-3-yl)-1,3-dioxoisoindolin-4-yl)amino)-N-(2-(4-(1,2-diphenylbut-1-en-1-yl)phenoxy)ethyl)-N-methyl-3,6,9,12-tetraoxapentadecan-15-amide] registered a DC50 of at most 1500 nM.

As to `CC/C(=C(\c1ccccc1)c1ccc(OCCN(C)C(=O)CCCNc2cccc3c2C(=O)N(C2CCC(=O)NC2=O)C3=O)cc1)c1ccccc1` (stereo not shown) [Compound 108, (Z)-4-((2-(2,6-dioxopiperidin-3-yl)-1,3-dioxoisoindolin-4-yl)amino)-N-(2-(4-(1,2-diphenylbut-1-en-1-yl)phenoxy)ethyl)-N-methylbutanamide], the DC50 is at most 1500 nM.

As for `CC/C(=C(\c1ccccc1)c1ccc(OCCN(C)C(=O)CCOCCOCCOCCOCCOCCNc2cccc3c2C(=O)N(C2CCC(=O)NC2=O)C3=O)cc1)c1ccccc1` (stereo not shown) [Compound 64, (Z)-1-((2-(2,6-dioxopiperidin-3-yl)-1,3-dioxoisoindolin-4-yl)amino)-N-(2-(4-(1,2-diphenylbut-1-en-1-yl)phenoxy)ethyl)-N-methyl-3,6,9,12,15-pentaoxaoctadecan-18-amide], the DC50 is at most 1500 nM.

`CC/C(=C(\c1ccccc1)c1ccc(OCCN(C)C(=O)CCCCCCNc2cccc3c2C(=O)N(C2CCC(=O)NC2=O)C3=O)cc1)c1ccccc1` (stereo not shown) [Compound 126, (Z)-7-((2-(2,6-dioxopiperidin-3-yl)-1,3-dioxoisoindolin-4-yl)amino)-N-(2-(4-(1,2-diphenylbut-1-en-1-yl)phenoxy)ethyl)-N-methylheptanamide] returned a DC50 of 1500 to 3000 nM.
